Experiment: Solubility of N-cyanomethyl-4-(trifluoromethyl)nicotinamide in salt solutions (HPLC of filtrate)
Format: physicochemical
Settings: for Amount of N-cyanomethyl-4-(trifluoromethyl)nicotinamide in Salt Solutions After Filtration: about 18 hours at ambient temperature
Experimental: In order to determine the effectiveness of a salt to decrease the solubility of N-cyanomethyl-4-(trifluoromethyl)nicotinamide in aqueous solutions, the following tests were conducted:
A salt solution consisting of two grams of a salt dissolved in ten grams of water was prepared. Fifty milligrams of N-cyanomethyl-4-(trifluoromethyl)nicotinamide was added and the resulting mixture was subjected to sonication until all the N-cyanomethyl-4-(trifluoromethyl)nicotinamide had dissolved. The solutions were allowed to stand at ambient temperature for about 18 hours. Each solution was filtered and the filtrate was analyzed by HPLC to determine the amount of N-cyanomethyl-4-(trifluoromethyl)nicotinamide which remained dissolved in the water. An experiment in which no salt was added was included as a control.

N#CCNC(=O)c1cnccc1C(F)(F)F [N-cyanomethyl-4-(trifluoromethyl)nicotinamide]
Amount of N-cyanomethyl-4-(trifluoromethyl)nicotinamide in Salt Solutions After Filtration (Control, no salt, 50 mg added to 10 g water): 50.0 mg
Amount of N-cyanomethyl-4-(trifluoromethyl)nicotinamide in Salt Solutions After Filtration (Magnesium Sulfate (Anhydrous), 2 g in 10 g water, 50 mg added): 7.0 mg
Amount of N-cyanomethyl-4-(trifluoromethyl)nicotinamide in Salt Solutions After Filtration (Sodium Sulfate, 2 g in 10 g water, 50 mg added): 10.0 mg
Reduction of solubility in an aqueous solution (concentration of 20% magnesium sulfate): over 90%
Reduction of solubility in an aqueous solution (sodium sulfate): 80%

— patent publication US11006630B2, “Stable suspension concentrate formulation for water-soluble compounds” (FMC Corporation, priority 2006, dated 2021)
